We go through 15 compounds from PMC7265639, “Freshwater viral metagenome reveals novel and functional phage-borne antibiotic resistance genes” (Microbiome, 2020).

For test [1], the system named is T1, E. coli BL21 (DE3)-pET-30a(+)-HRV-1.
T1 construct: BL21 (DE3) pET-30a(+)/blaHRV-1-His6 transformant expressing HRV-1 beta-lactamase
Nature of the test: microbe, parasite or virus in culture. Further details: species or system Escherichia coli BL21 (DE3) transformants; agar dilution MIC on Mueller-Hinton agar with 1 mM IPTG. The note with it: Escherichia coli, HRV1, read-out: MIC (μg/mL) for E. coli strain / E. coli BL21 (DE3)-pET-30a(+)-HRV-1. The protocol:
(§1) When cultures of the cloned E. coli BL21 (DE3) cells reached approximately 0.6 at OD600, 1 mM isopropyl β-D-1-thiogalactopyranoside was added to induce expression of the blaHRV-1 or blaHRVM-1 gene followed by culture at 16 °C for 16 h. Susceptibility to benzylpenicillin, ampicillin, piperacillin, ticarcillin, oxacillin, cloxacillin, cephalothin, cefoxitin, cefotaxime, ceftazidime, cefepime, aztreonam, meropenem, imipenem (Sigma-Aldrich), and ertapenem (Merck & Co., Inc, Kenilworth, NJ, USA) against cloned E. coli BL21 (DE3) was assessed using the agar dilution technique in Mueller-Hinton agar (Difco Laboratories Inc., Detroit, MI, USA) including 1 mM IPTG with an inoculum of 10^5 CFU per spot. The PCR products were double-digested with NdeI and XhoI for the HRV-1 and NcoI and XhoI for the HRVM-1, and the digested DNAs were cloned into corresponding restriction enzyme-digested pET-28a(+) or pET-30a(+) vectors (Novagen, Madison, WI, USA). Recombinant plasmids [pET-30a(+)/blaHRV-1-His6 and pET-28a(+)/blaHRVM-1-His6] were transformed into E. coli BL21 (DE3) (Invitrogen, Carlsbad, CA, USA).

The test system of test [2] is T2, E. coli BL21 (DE3)-pET-28a(+)-HRVM-1.
T2 construct: BL21 (DE3) pET-28a(+)/blaHRVM-1-His6 transformant expressing HRVM-1 metallo-beta-lactamase
Nature of the test: microbe, parasite or virus in culture. Further details: species or system Escherichia coli BL21 (DE3) transformants; agar dilution MIC on Mueller-Hinton agar with 1 mM IPTG. The note with it: Escherichia coli, read-out: MIC (μg/mL) for E. coli strain / E. coli BL21 (DE3)-pET-28a(+)-HRVM-1. The protocol:
as §1

In test [3] the test system is T3, HRV-1.
T3 construct: gene blaHRV-1; expressed in E. coli BL21(DE3) from pET-30a(+)/blaHRV-1-His6 (NdeI/XhoI); His6 tag removal by enterokinase stated; purified
Put plainly: UV spectrophotometric beta-lactam hydrolysis, steady-state kinetics. As to conditions: 10 mM MES pH 6.8, 30 °C, 20 μg/mL BSA. Type of test: biochemical.

Test [4] relates to T4, HRVM-1.
T4 construct: gene blaHRVM-1; expressed in E. coli BL21(DE3) from pET-28a(+)/blaHRVM-1-His6 (NcoI/XhoI); His6 tag removal by enterokinase stated; purified
The test is described as above. The note with it: 50 mM MES pH 7.0, 100 μM ZnCl2, 100 μg/mL BSA, 30 °C. Type of test: biochemical. The source says: UV spectrophotometric beta-lactam hydrolysis, steady-state kinetics on HRVM-1 | the kcat/km of HRVM-1 for imipenem

Values after ≈ are worked out from the molar mass of the structure shown.

`CC1(C)S[C@@H]2[C@H](NC(=O)[C@H](N)c3ccccc3)C(=O)N2[C@H]1C(=O)O` [Ampicillin]: the MIC in test [1] stood at 64 µg/mL (≈ 183 µM); in test [2], 32 µg/mL (≈ 91.6 µM).

For the compound `C[C@H]1[C@H](NC(=O)/C(=N\OC(C)(C)C(=O)O)c2csc(N)n2)C(=O)N1S(=O)(=O)O` [Aztreonam], the MIC in test [1] and in test [2] was 8 µg/mL (≈ 18.4 µM) each time.

`CC1(C)S[C@@H]2[C@H](NC(=O)Cc3ccccc3)C(=O)N2[C@H]1C(=O)O` [Benzylpenicillin]: the results for the MIC in test [1] and in test [2] were 512 µg/mL (≈ 1530 µM) and 256 µg/mL (≈ 766 µM), respectively.

For the compound `CO/N=C(\C(=O)N[C@@H]1C(=O)N2C(C(=O)[O-])=C(C[N+]3(C)CCCC3)CS[C@H]12)c1csc(N)n1` [Cefepime], the MIC in test [1] and in test [2] was 4 µg/mL (≈ 8.32 µM) in each case.

As for `CO[C@@]1(NC(=O)Cc2cccs2)C(=O)N2C(C(=O)O)=C(COC(N)=O)CS[C@@H]21` [Cefoxitin], the MIC in test [1] and in test [2] was 4 µg/mL (≈ 9.36 µM) throughout.

Turning to `CC(=O)OCC1=C(C(=O)O)N2C(=O)[C@@H](NC(=O)Cc3cccs3)[C@H]2SC1` [Cephalothin], the MIC in test [1] and in test [2] was 32 µg/mL (≈ 80.7 µM) throughout.

With `Cc1onc(-c2ccccc2Cl)c1C(=O)N[C@@H]1C(=O)N2[C@@H]1SC(C)(C)[C@@H]2C(=O)O` [Cloxacillin], the results for the MIC in test [1] and in test [2] were 256 µg/mL (≈ 587 µM) and 128 µg/mL (≈ 294 µM), respectively.

For the compound `C[C@@H](O)[C@H]1C(=O)N2C(C(=O)O)=C(S[C@@H]3CN[C@H](C(=O)Nc4cccc(C(=O)O)c4)C3)[C@H](C)[C@H]12` [Ertapenem], the MIC in test [1] and in test [2] was 0.5 µg/mL (≈ 1.05 µM) each time.

As for `C[C@@H](O)[C@H]1C(=O)N2C(C(=O)O)=C(S[C@@H]3CN[C@H](C(=O)N(C)C)C3)[C@H](C)[C@H]12` [Meropenem], the MIC in test [1] and in test [2] was 0.5 µg/mL (≈ 1.3 µM) throughout.

With `Cc1onc(-c2ccccc2)c1C(=O)N[C@@H]1C(=O)N2[C@@H]1SC(C)(C)[C@@H]2C(=O)O` [Oxacillin], the MIC in test [1] came to 256 µg/mL (≈ 638 µM); in test [2], 128 µg/mL (≈ 319 µM).

On to `CCN1CCN(C(=O)N[C@@H](C(=O)N[C@@H]2C(=O)N3[C@@H]2SC(C)(C)[C@@H]3C(=O)O)c2ccccc2)C(=O)C1=O` [Piperacillin], for which the MIC in test [1] was 64 µg/mL (≈ 124 µM); in test [2], 32 µg/mL (≈ 61.8 µM).

Regarding `CC1(C)S[C@@H]2[C@H](NC(=O)[C@H](C(=O)O)c3ccsc3)C(=O)N2[C@H]1C(=O)O` [Ticarcillin], the MIC in test [1] and in test [2] was 32 µg/mL (≈ 83.2 µM) in each case.

Broadly, the Km is the substrate concentration at which the rate is half of its maximum. For `CO/N=C(\C(=O)N[C@@H]1C(=O)N2C(C(=O)O)=C(COC(C)=O)CS[C@H]12)c1csc(N)n1` [cefotaxime], the Km in test [3] is 11.74 ± 0.01 µM. For the same compound, the MIC in test [1] and in test [2] was 8 µg/mL (≈ 17.6 µM) throughout.

For `CC(C)(O/N=C(\C(=O)N[C@@H]1C(=O)N2C(C(=O)[O-])=C(C[n+]3ccccc3)CS[C@H]12)c1csc(N)n1)C(=O)O` [ceftazidime], the Km in test [3] stood at 12.15 ± 0.02 µM. Also, the MIC in test [1] and in test [2] was 8 µg/mL (≈ 14.6 µM) throughout.

Take `C[C@@H](O)[C@H]1C(=O)N2C(C(=O)O)=C(SCCN=CN)C[C@H]12` [imipenem]: the Km in test [4] was 5.42 ± 0.01 µM. The MIC in test [1] and in test [2] was 0.5 µg/mL (≈ 1.67 µM) each time.
